The source of these data is PubChem BioAssay AID624129 (Sanford-Burnham Center for Chemical Genomics, 2012).

Activity calls are given as the source filed them. No rule for the calls is given here.

What all share (assay): CXCR6 receptor antagonists, dose response, cell-based, beta-arrestin, DiscoveRx, APJ panel, uHTS hits (AID 624129)
Experiment [1] concerns the target Apelin receptor (Homo sapiens) (UniProt P35414). Particulars: CXCR6 beta-arrestin (DiscoveRx) antagonist cell assay, APJ.
Experiment [2] deals with C-C chemokine receptor type 6 (Homo sapiens) (UniProt P51684). Particulars: CXCR6 beta-arrestin (DiscoveRx) antagonist cell assay.
In experiment [3] the target is C-X-C chemokine receptor type 6 (Homo sapiens) (UniProt O00574). Particulars: CXCR6 beta-arrestin (DiscoveRx) antagonist cell assay; for inhibition: CXCR6, run 1, dose range 2, at 80 µM (top of the series).
Sequence of C-X-C chemokine receptor type 6 (Homo sapiens) (O00574 whole entry, looked up): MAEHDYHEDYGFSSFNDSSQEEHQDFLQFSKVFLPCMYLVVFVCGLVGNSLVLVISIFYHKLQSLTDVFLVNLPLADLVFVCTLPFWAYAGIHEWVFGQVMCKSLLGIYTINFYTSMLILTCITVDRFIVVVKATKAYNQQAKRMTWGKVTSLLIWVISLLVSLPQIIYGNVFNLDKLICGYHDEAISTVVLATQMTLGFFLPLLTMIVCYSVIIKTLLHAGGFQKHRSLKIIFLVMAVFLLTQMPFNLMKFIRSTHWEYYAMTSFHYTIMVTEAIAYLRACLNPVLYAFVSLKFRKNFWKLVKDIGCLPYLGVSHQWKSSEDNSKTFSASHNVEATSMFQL
Experiment [4] deals with Beta-galactosidase (Escherichia coli) (UniProt Q8VNN2). Particulars: CXCR6 beta-arrestin (DiscoveRx) antagonist cell assay, b-galactosidase.
Sequence of Beta-galactosidase (Escherichia coli) (Q8VNN2 whole entry, looked up): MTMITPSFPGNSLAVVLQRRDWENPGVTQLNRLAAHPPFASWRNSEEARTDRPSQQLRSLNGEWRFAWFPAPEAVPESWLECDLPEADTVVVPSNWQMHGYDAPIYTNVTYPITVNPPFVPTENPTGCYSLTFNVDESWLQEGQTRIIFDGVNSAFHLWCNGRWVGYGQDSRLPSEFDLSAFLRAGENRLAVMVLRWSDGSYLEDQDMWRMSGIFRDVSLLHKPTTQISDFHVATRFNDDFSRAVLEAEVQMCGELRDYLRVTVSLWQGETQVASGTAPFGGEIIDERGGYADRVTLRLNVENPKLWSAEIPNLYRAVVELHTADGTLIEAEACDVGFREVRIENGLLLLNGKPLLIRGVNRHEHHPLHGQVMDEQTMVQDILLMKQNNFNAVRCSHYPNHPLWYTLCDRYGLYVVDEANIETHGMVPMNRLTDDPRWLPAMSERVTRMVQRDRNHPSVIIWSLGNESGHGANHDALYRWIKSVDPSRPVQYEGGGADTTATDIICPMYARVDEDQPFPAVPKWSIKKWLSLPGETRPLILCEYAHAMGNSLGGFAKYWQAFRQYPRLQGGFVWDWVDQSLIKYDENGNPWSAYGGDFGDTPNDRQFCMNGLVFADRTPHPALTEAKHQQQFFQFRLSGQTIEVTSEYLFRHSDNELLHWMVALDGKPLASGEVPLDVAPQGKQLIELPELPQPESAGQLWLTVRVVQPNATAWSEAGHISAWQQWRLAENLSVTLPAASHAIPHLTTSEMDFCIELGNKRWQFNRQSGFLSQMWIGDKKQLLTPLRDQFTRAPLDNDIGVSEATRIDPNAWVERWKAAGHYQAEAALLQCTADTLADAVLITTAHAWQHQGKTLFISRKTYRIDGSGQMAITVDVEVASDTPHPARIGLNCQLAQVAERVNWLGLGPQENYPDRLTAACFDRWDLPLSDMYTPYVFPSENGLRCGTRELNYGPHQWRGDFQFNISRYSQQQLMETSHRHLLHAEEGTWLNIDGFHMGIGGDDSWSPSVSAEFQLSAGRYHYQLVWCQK
Setting [5] is: dose range 1, mean IC50 across replicates.
The mark [6] stands for this setting: CCR6, dose range 1, mean IC50 across replicates.
[7] abbreviates: CXCR6, dose range 1, mean IC50 across replicates.

By IC50 is commonly meant the concentration needed to halve the response being measured. The term inhibition denotes the relative decrease from the control value, in per cent. Regarding `CC(C)(C)c1ccc(CN2N=Nc3ccccc3S2(=O)=O)cc1`, the half-maximal inhibitory concentration (IC50) was 13.3 µM in experiment [1] (dose range 1); 25.6 µM in experiment [1] (setting [5]); 27.9 µM in experiment [1] (run 2, dose range 1); 35.5 µM in experiment [1] (run 3, dose range 1); 11.2 µM in experiment [2] (CCR6, dose range 1); 17.2 µM in experiment [2] (setting [6]). Besides, the IC50 in experiment [2] (CCR6, run 2, dose range 1) was 23.1 µM; in experiment [3] (setting [7]), 16.3 µM; in experiment [3] (CXCR6, run 2, dose range 1), 20 µM; in experiment [4] (dose range 1), > 80 µM (inactive); in experiment [4] (setting [5]), > 80 µM. For the same compound, the IC50 entry in experiment [3] (CXCR6, dose range 1) was “inactive”. In experiment [3], the inhibition was 142%.
As for `Cc1ccc(NC(=S)N/N=C/c2ccc([N+](=O)[O-])s2)cc1`, the concentration for half-maximal inhibition (IC50) in experiment [1] (dose range 1) was 9.42 µM; in experiment [1] (setting [5]), 19.2 µM; in experiment [1] (run 2, dose range 1), 18.1 µM; in experiment [1] (run 3, dose range 1), 30 µM; in experiment [2] (CCR6, dose range 1) it was 3.88 µM; in experiment [2] (setting [6]), 5.06 µM. Also, the IC50 in experiment [2] (CCR6, run 2, dose range 1) is 6.24 µM; in experiment [3] (CXCR6, dose range 1), 9.1 µM; in experiment [3] (setting [7]), 7.46 µM; in experiment [3] (CXCR6, run 1, dose range 2) it was 5.64 µM; in experiment [3] (CXCR6, run 2, dose range 1), 8.89 µM; in experiment [3] (CXCR6, run 2, dose range 2) it was 6.21 µM. The IC50 in experiment [4] (dose range 1) and in experiment [4] (setting [5]) was 31.3 µM in each case.
With `COc1ccc([N+](=O)[O-])c(S(=O)(=O)c2ccc(Cl)cc2)n1`, the half-maximal inhibitory concentration (IC50) in experiment [1] (dose range 1) was 47.2 µM; in experiment [1] (setting [5]) it was 49.4 µM; in experiment [1] (run 2, dose range 1), 51.5 µM; in experiment [1] (run 3, dose range 1), > 80 µM; in experiment [2] (CCR6, dose range 1), 69.3 µM; in experiment [2] (setting [6]) it was 62.5 µM. The concentration for half-maximal inhibition (IC50) was 55.8 µM in experiment [2] (CCR6, run 2, dose range 1); 51.9 µM in experiment [3] (setting [7]); 61.5 µM in experiment [3] (CXCR6, run 2, dose range 1); > 80 µM (inactive) in experiment [4] (dose range 1); > 80 µM in experiment [4] (setting [5]). In addition, the IC50 entry in experiment [3] (CXCR6, dose range 1) is “inactive”. Also, the inhibition in experiment [3] stood at 75.8%.
On to `Cc1cc(C)c2ccc(N)nc2c1O`, for which the IC50 in experiment [1] (setting [5]) was > 80 µM; in experiment [1] (run 2, dose range 1), > 80 µM; in experiment [1] (run 3, dose range 1) it was > 80 µM; in experiment [2] (setting [6]), > 80 µM; in experiment [2] (CCR6, run 2, dose range 1) it was > 80 µM; in experiment [3] (CXCR6, dose range 1), > 80 µM (inactive). Also, the IC50 in experiment [3] (setting [7]) is > 80 µM; in experiment [3] (CXCR6, run 2, dose range 1), > 80 µM; in experiment [4] (dose range 1), > 80 µM (inactive); in experiment [4] (setting [5]) it was > 80 µM. Further, the inhibition in experiment [3] is -25.6%.
Take `O=[N+]([O-])c1cc(Cc2ccccc2)cc(C=Nc2ccc(N3CCOCC3)cc2)c1O`: the IC50 in experiment [1] (dose range 1) was 15.7 µM; in experiment [1] (setting [5]), 28.9 µM; in experiment [1] (run 2, dose range 1), 33.6 µM; in experiment [1] (run 3, dose range 1), 37.4 µM; in experiment [2] (setting [6]), 37.4 µM; in experiment [2] (CCR6, run 2, dose range 1), 37.4 µM. Moreover, the IC50 in experiment [3] (setting [7]) was found to be 14.5 µM; in experiment [3] (CXCR6, run 2, dose range 1) it was 13.1 µM; in experiment [4] (setting [5]) it was 64.7 µM. Moreover, the IC50 entry is “inactive” in experiment [3] (CXCR6, dose range 1) and “inactive” in experiment [4] (dose range 1). Besides, the inhibition in experiment [3] was 93.2%.
Consider `COc1ccc(/C=C/c2ccc3cccc(O)c3n2)c(OC)c1OC`, for which the half-inhibitory concentration (IC50) in experiment [1] (dose range 1) is 4.95 µM; in experiment [1] (setting [5]), 6.97 µM; in experiment [1] (run 2, dose range 1) it was 8.96 µM; in experiment [1] (run 3, dose range 1) it was 6.98 µM; in experiment [2] (CCR6, dose range 1), 3.71 µM; in experiment [2] (setting [6]), 3.08 µM. The 50% inhibitory concentration (IC50) in experiment [2] (CCR6, run 2, dose range 1) is 2.45 µM; in experiment [3] (CXCR6, dose range 1), 5 µM; in experiment [3] (setting [7]) it was 4.12 µM; in experiment [3] (CXCR6, run 1, dose range 2), 3.43 µM; in experiment [3] (CXCR6, run 2, dose range 1), 5.18 µM; in experiment [3] (CXCR6, run 2, dose range 2), 2.88 µM. The IC50 in experiment [4] (dose range 1) is > 80 µM (inactive); in experiment [4] (setting [5]), > 80 µM.
Take `COc1ccc(C)c(-n2c(=O)n(Cc3ccccc3)c(=O)c3[nH]cnc32)c1`: the half-maximal inhibitory concentration (IC50) in experiment [1] (dose range 1) is 13.5 µM; in experiment [1] (setting [5]) it was 13.1 µM; in experiment [1] (run 2, dose range 1), 15.7 µM; in experiment [1] (run 3, dose range 1), 9.95 µM; in experiment [2] (CCR6, dose range 1) it was 8.5 µM; in experiment [2] (setting [6]), 9.2 µM. Besides, the half-inhibitory concentration (IC50) in experiment [2] (CCR6, run 2, dose range 1) was 9.91 µM; in experiment [3] (setting [7]), 12.3 µM; in experiment [3] (CXCR6, run 1, dose range 2), 10.9 µM; in experiment [3] (CXCR6, run 2, dose range 1), 14 µM; in experiment [3] (CXCR6, run 2, dose range 2), 7.56 µM; in experiment [4] (dose range 1), 8.42 µM. The compound further gave a concentration for half-maximal inhibition (IC50) in experiment [4] (setting [5]) of 8.42 µM. Also, the IC50 entry in experiment [3] (CXCR6, dose range 1) is “inactive”.
Consider `Cn1c(O)c(C2=NNC(c3ccc(Cl)cc3)C2)c(=O)n(C)c1=O` (stereo not given), for which the half-maximal inhibitory concentration (IC50) in experiment [1] (dose range 1) is 9.91 µM; in experiment [1] (setting [5]), 13.1 µM; in experiment [1] (run 2, dose range 1), 20 µM; in experiment [1] (run 3, dose range 1), 9.47 µM; in experiment [2] (CCR6, dose range 1) it was 11.2 µM; in experiment [2] (setting [6]) it was 13.6 µM. Also, the 50% inhibitory concentration (IC50) is 16 µM in experiment [2] (CCR6, run 2, dose range 1); 11.7 µM in experiment [3] (setting [7]); 6.31 µM in experiment [3] (CXCR6, run 1, dose range 2); 17 µM in experiment [3] (CXCR6, run 2, dose range 1); 8.11 µM in experiment [3] (CXCR6, run 2, dose range 2); 26.3 µM in experiment [4] (dose range 1). In experiment [4] (setting [5]), this compound returned a half-inhibitory concentration (IC50) of 26.3 µM. In experiment [3] (CXCR6, dose range 1), the IC50 result was “inactive”.
